Reference: ChEMBL document CHEMBL4043087 (J Med Chem, 2017)

Assays:
[1] = organism: Rattus norvegicus; assay: Displacement of [35S]TBPS from GABAA receptor in Wistar rat cerebral cortex membranes after 3 hrs by scintillation counting method; details: Membrane
[2] = organism: Rattus norvegicus; assay: Displacement of [35S]TBPS from GABAA receptor in Wistar rat cerebral cortex membranes at 10 uM after 3 hrs by scintillation counting method; details: Membrane
[3] = organism: Rattus norvegicus; assay: Displacement of [35S]TBPS from GABAA receptor in Wistar rat cerebral cortex membranes at 1 uM after 3 hrs by scintillation counting method; details: Membrane
[4] = tested on: Mus musculus; assay: Anesthetic activity in iv dosed ICR mouse assessed as onset time for loss of righting reflex administered 7 to 8 doses at 10 secs for each dose; assay type: functional
[5] = tested on: Mus musculus; assay: Anesthetic activity in iv dosed ICR mouse assessed as anesthetic duration time administered 7 to 8 doses at 10 secs for each dose; assay type: functional
[6] = tested on: Mus musculus; assay: Anesthetic activity in iv dosed ICR mouse assessed as recovery time of righting reflex by measuring the ability to grip and climb a steel frame and ambulated normally administered 7 to 8 doses at 10 secs for each dose; assay type: functional
[7] = tested on: Mus musculus; assay: Anesthetic activity in iv dosed ICR mouse assessed as dose required to produce 10 min of anesthesia administered 7 to 8 doses at 10 secs for each dose; assay type: functional
[8] = tested on: Rattus norvegicus; assay: Half life in Sprague-Dawley rat at 1 mg/kg, iv by LC-MS/MS analysis; assay type: ADME, organism-based; details: in vivo
[9] = Volume of distribution at steady state in Sprague-Dawley rat at 1 mg/kg, iv by LC-MS/MS analysis; assay type: ADME, organism-based; details: in vivo, read-out: Vdss
[10] = Clearance in Sprague-Dawley rat at 1 mg/kg, iv by LC-MS/MS analysis; assay type: ADME, organism-based; details: in vivo
[11] = tested on: Rattus norvegicus; assay: Cmax in Sprague-Dawley rat at 1 mg/kg, iv by LC-MS/MS analysis; assay type: ADME, organism-based; design: dose 1 mg/kg, route intravenous; details: in vivo
[12] = organism: Rattus norvegicus; details: in vivo, iv, 1 mg/kg
[13] = tested on: Mus musculus; assay: Anesthetic activity in mouse model assessed as loss of righting reflex; assay type: functional
[14] = Toxicity in mouse; assay type: organism-based; details: in vivo
[15] = Therapeutic index, ratio of LD50 for toxicity in mouse to ED50 for anesthetic effect in mouse
[16] = tested on: Mus musculus; assay: Anesthetic activity in iv dosed ICR mouse assessed as loss of righting reflex administered 7 to 8 doses at 10 secs for each dose; assay type: functional
[17] = Toxicity in iv dosed ICR mouse administered 7 to 8 doses at 10 secs for each dose; assay type: organism-based; details: in vivo

CCC(C)c1cccc(C(C)C2CC2)c1O (racemic)
inhibition [1]: Dose-dependent effect | inhibition [2]: 74% | inhibition [3]: -3% | Time [4]: <10 s | Time [5]: 418.14 s | Time [6]: 130.71 s | Activity [7]: 20 mg/kg

CC(C)c1cccc([C@H](C)C2CC2)c1O [CIPEPOFOL]
inhibition [1]: Dose-dependent effect | inhibition [2]: 85% | inhibition [3]: 34% | t1/2 [8]: 28 min | Vd [9]: 2.02 L/kg | clearance [10]: 100 mL/min/kg | Cmax [11]: 834 ng/mL | Time [4]: 21.86 s | Time [5]: 313.43 s | Time [6]: 64.8 s | Activity [7]: 4.8 mg/kg | AUCt [12]: 164 ng·h/mL

CC[C@H](C)c1cccc([C@H](C)C2CC2)c1OCOP(=O)([O-])[O-].[Na+].[Na+]
ED50 [13]: 24.3 mg/kg | LD50 [14]: 91.8 mg/kg | Ratio LD50/ED50 [15]: 3.8

CC[C@@H](C)c1cccc([C@H](C)C2CC2)c1OCOP(=O)([O-])[O-].[Na+].[Na+]
ED50 [13]: 15.9 mg/kg | LD50 [14]: 63.7 mg/kg | Ratio LD50/ED50 [15]: 4

CC(c1cccc(C2CC2)c1O)C1CC1 (racemic)
Time [4]: <10 s | Time [5]: 500.67 s | Time [6]: 193.63 s | ED50 [16]: 14.6 mg/kg | LD50 at 10 s [17]: 80 mg/kg

C[C@@H](c1cccc([C@H](C)C2CC2)c1O)C1CC1
inhibition [1]: Dose-dependent effect | inhibition [2]: 96% | inhibition [3]: 64% | t1/2 [8]: 31 min | Vd [9]: 1.92 L/kg | clearance [10]: 95 mL/min/kg | Cmax [11]: 713 ng/mL | Time [4]: <10 s | Time [5]: 318.43 s | Time [6]: 61.67 s | Activity [7]: 5 mg/kg | AUCt [12]: 170 ng·h/mL

Cc1cccc(C(C)C2CC2)c1O (racemic)
Time [4]: <10 s | Time [5]: 198.33 s | Time [6]: 122 s | ED50 [16]: 7.4 mg/kg | LD50 at 10 s [17]: 54.9 mg/kg

C[C@H](c1cccc([C@@H](C)C2CC2)c1OCOP(=O)([O-])[O-])C1CC1.[Na+].[Na+]
ED50 [13]: 94.7 mg/kg | Ratio LD50/ED50 [15]: 2.9

C[C@H](c1cccc([C@H](C)C2CC2)c1OCOP(=O)([O-])[O-])C1CC1.[Na+].[Na+]
ED50 [13]: 35.8 mg/kg | Ratio LD50/ED50 [15]: 4

CCC(c1cccc(C(C)C)c1O)C1CC1 (racemic)
Time [4]: 13.6 s | Time [5]: 523.57 s | Time [6]: 50.38 s | ED50 [16]: 6.2 mg/kg | LD50 at 10 s [17]: 53.2 mg/kg

CC(c1cccc(C(C)C2CC2)c1O)C1CC1 (racemic)
inhibition [1]: Dose-dependent effect | inhibition [2]: 91% | inhibition [3]: 13% | Time [4]: <10 s | Time [5]: 563.63 s | Time [6]: 233.83 s | LD50 at 10 s [17]: > 15 mg/kg

CC(C)c1cccc(C(C)C)c1O [PROPOFOL]
inhibition [1]: Dose-dependent effect | inhibition [2]: 10% | Vd [9]: 5.23 L/kg | Cmax [11]: 384 ng/mL | Time [4]: <10 s | Time [5]: 303.2 s | Time [6]: 50 s | Activity [7]: 25 mg/kg | AUCt [12]: 76.9 ng·h/mL

CC(C)c1cccc([C@@H](C)C2CC2)c1OCOP(=O)([O-])[O-].[Na+].[Na+]
ED50 [13]: 82.7 mg/kg | Ratio LD50/ED50 [15]: 4.5

CC(C)c1cccc([C@@H](C)C2CC2)c1O
inhibition [1]: Dose-dependent effect | inhibition [2]: 9% | inhibition [3]: 3% | Time [4]: 5.71 s | Time [5]: 344 s | Time [6]: 168.33 s | ED50 [16]: 7.9 mg/kg | LD50 at 10 s [17]: 50 mg/kg | Activity [7]: 30 mg/kg

CC(C)c1cccc(C(C2CC2)C2CC2)c1O
Time [4]: <10 s | Time [5]: 2616.4 s | Time [6]: 220.17 s | LD50 at 10 s [17]: > 100 mg/kg | Activity [7]: 50 mg/kg

CC(C)c1cccc(C(C)C2CCC2)c1O (racemic)
Time [4]: 43.5 s | Time [5]: 364 s | Time [6]: 46 s | LD50 at 10 s [17]: 40 mg/kg

CC[C@H](C)c1cccc([C@@H](C)C2CC2)c1O
inhibition [1]: Dose-dependent effect | inhibition [2]: 47% | inhibition [3]: 5% | Time [4]: <10 s | Time [5]: 643.4 s | Time [6]: 224 s | Activity [7]: 10 mg/kg

CC(C)c1cccc(C(C)C2CCCC2)c1O (racemic)
Time [4]: 5 s | Time [5]: 737.33 s | Time [6]: 441.6 s | ED50 [16]: 19.9 mg/kg | LD50 at 10 s [17]: 115 mg/kg | Activity [7]: 40 mg/kg

CC[C@@H](C)c1cccc([C@H](C)C2CC2)c1O
inhibition [1]: Dose-dependent effect | inhibition [2]: 87% | inhibition [3]: 23% | t1/2 [8]: 22 min | Vd [9]: 3.23 L/kg | clearance [10]: 208 mL/min/kg | Cmax [11]: 575 ng/mL | Time [4]: <10 s | Time [5]: 471.88 s | Time [6]: 391.29 s | ED50 [16]: 2 mg/kg | LD50 at 10 s [17]: 14.3 mg/kg | Activity [7]: 7.5 mg/kg | AUCt [12]: 78.1 ng·h/mL

C[C@H](c1cccc([C@H](C)C2CC2)c1O)C1CC1
inhibition [1]: Dose-dependent effect | inhibition [2]: 78% | inhibition [3]: -5% | Time [4]: <10 s | Time [5]: 492.17 s | Time [6]: 24.5 s | ED50 [16]: 5.9 mg/kg | LD50 at 10 s [17]: 43.6 mg/kg | Activity [7]: 20 mg/kg

C[C@H](c1cccc([C@@H](C)C2CC2)c1O)C1CC1
inhibition [1]: Dose-dependent effect | inhibition [2]: 35% | Time [4]: 7 s | Time [5]: 567.33 s | Time [6]: 150.8 s | ED50 [16]: 19.5 mg/kg | LD50 at 10 s [17]: 149 mg/kg | Activity [7]: 40 mg/kg

CCc1cccc(C(C)C2CC2)c1O (racemic)
Time [4]: <10 s | Time [5]: 409.57 s | Time [6]: 226.57 s | ED50 [16]: 7.7 mg/kg | LD50 at 10 s [17]: 57.1 mg/kg

CC(C)c1cccc(C(C)C2CC2)c1O (racemic)
inhibition [1]: Dose-dependent effect | inhibition [2]: 3% | Time [4]: <10 s | Time [5]: 518.5 s | Time [6]: 78 s | Activity [7]: 10 mg/kg

CCC(c1cccc(C(C)C2CC2)c1O)C1CC1 (racemic)
Time [4]: 7.5 s | Time [5]: 670.13 s | Time [6]: 205.8 s | ED50 [16]: 9 mg/kg | LD50 at 10 s [17]: 74.7 mg/kg | Activity [7]: 20 mg/kg

CC(C)c1cccc([C@@H](C)C2CCC2)c1O
Time [4]: 15.63 s | Time [5]: 450.43 s | Time [6]: 191.8 s | LD50 at 10 s [17]: 107 mg/kg | Activity [7]: 100 mg/kg

CC(c1cccc(C(C2CC2)C2CC2)c1O)C1CC1 (racemic)
Time [4]: <10 s | Time [5]: 761.33 s | Time [6]: 326.5 s | ED50 [16]: 9.8 mg/kg | LD50 at 10 s [17]: 98.2 mg/kg | Activity [7]: 20 mg/kg

CC(c1ccccc1O)C1CC1 (racemic)
Time [4]: <10 s | Time [5]: 598 s | Time [6]: 329.6 s | ED50 [16]: 14 mg/kg | LD50 at 10 s [17]: 64.8 mg/kg | Activity [7]: 30 mg/kg

CC[C@H](C)c1cccc([C@H](C)C2CC2)c1O
inhibition [1]: Dose-dependent effect | inhibition [2]: 34% | inhibition [3]: -9% | Time [4]: <10 s | Time [5]: 545 s | Time [6]: 363.67 s | LD50 at 10 s [17]: 65.4 mg/kg | Activity [7]: 20 mg/kg

COc1cccc(C(C)C2CC2)c1O (racemic)
Time [4]: <10 s | Time [5]: 364.14 s | Time [6]: 79 s | ED50 [16]: 7.4 mg/kg

CC(C)c1cccc([C@H](C)C2CCC2)c1O
Time [4]: <10 s | Time [5]: 443.5 s | Time [6]: 89.11 s

CC(c1cccc(C2(C)CC2)c1O)C1CC1 (racemic)
Time [4]: 9.5 s | Time [5]: 365.75 s | Time [6]: 306.13 s | LD50 at 10 s [17]: 40 mg/kg | Activity [7]: 45 mg/kg

CC[C@@H](C)c1cccc([C@H](C)CC)c1O
inhibition [1]: Dose-dependent effect | inhibition [2]: 29% | inhibition [3]: 0% | Time [4]: 18 s | Time [5]: 459.83 s | Time [6]: 39.83 s | ED50 [16]: 2.69 mg/kg | LD50 at 10 s [17]: 23.8 mg/kg | Activity [7]: 10 mg/kg

CC[C@@H](C)c1cccc([C@@H](C)C2CC2)c1O
inhibition [1]: Dose-dependent effect | inhibition [2]: 63% | inhibition [3]: -1% | Time [4]: <10 s | Time [5]: 418 s | Time [6]: 192.33 s | ED50 [16]: 1.3 mg/kg | LD50 at 10 s [17]: 8.3 mg/kg | Activity [7]: 4 mg/kg
